Source: PubChem BioAssay (NCI)
Several values for one entry are separate records, joined by “and”; a condition that tells them apart may be missing. Identical values can stand only once.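 Exposure lasted 48 hours, with cells grown in 96-well plates and compounds tested at five concentrations. GI50 marks 50% less growth. The concentration for full growth arrest is given as TGI.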

Key:
Experiment in all cases: NCI anticancer screen, dose series, 48 h
HL-60(TB) leukemia = tested on: HL-60(TB) leukemia
SR leukemia = tested on: SR leukemia
HCC-2998 colon = tested on: HCC-2998 colon
OVCAR-8 ovarian = tested on: OVCAR-8 ovarian
MALME-3M melanoma = tested on: MALME-3M melanoma
SK-MEL-2 melanoma = tested on: SK-MEL-2 melanoma
SF-295 CNS = tested on: SF-295 CNS
CAKI-1 renal = tested on: CAKI-1 renal
A549 NSCLC = tested on: A549 NSCLC
SW-620 colon = tested on: SW-620 colon

| Compound | TGI (HL-60(TB) leukemia) | TGI (SR leukemia) | TGI (HCC-2998 colon) | GI50 (OVCAR-8 ovarian) | TGI (OVCAR-8 ovarian) | TGI (MALME-3M melanoma) | TGI (SK-MEL-2 melanoma) | TGI (SF-295 CNS) | TGI (CAKI-1 renal) | TGI (A549 NSCLC) | GI50 (SW-620 colon) | TGI (SW-620 colon) | GI50 (HL-60(TB) leukemia) | GI50 (SR leukemia) | GI50 (HCC-2998 colon) | GI50 (MALME-3M melanoma) | GI50 (SK-MEL-2 melanoma) | GI50 (SF-295 CNS) | GI50 (CAKI-1 renal) | GI50 (A549 NSCLC) |
| --- | --- | --- | --- | --- | --- | --- | --- | --- | --- | --- | --- | --- | --- | --- | --- | --- | --- | --- | --- | --- |
| COC(=O)C1=COC(C)C2CN3CCc4c([nH]c5cc(OC)c(OC)cc45)C3CC12 (stereo not given) | 66.6 µM and 65.9 µM | > 100 µM | > 100 µM | > 100 µM and 45.1 µM | > 100 µM | > 100 µM | > 100 µM | > 100 µM | > 100 µM | > 100 µM | > 100 µM and 39.1 µM | > 100 µM |  |  |  |  |  |  |  |  |
| C[C@]12CC[C@@H]3c4cc(OC(F)F)c(OS(N)(=O)=O)cc4CC[C@H]3[C@@H]1CC[C@@H]2OS(N)(=O)=O | 27.6 µM | > 100 µM | 17.3 µM | 1.74 µM | > 59 µM | 22 µM | 24.9 µM | 3.14 µM | 19.8 µM | 34.4 µM | 0.439 µM | 20.7 µM | 0.829 µM | 0.441 µM | 3.88 µM | 2.35 µM | 2.79 µM | 1.04 µM | 1.46 µM | 2.52 µM |
| O=C1NC2C(=CC(O)C(O)C2O)c2cc3c(cc21)OCO3 (stereo not given) | 0.282 µM and 0.213 µM and 0.594 µM | 0.566 µM | 1.38 µM and 1.67 µM | 0.344 µM and 0.171 µM | 2.25 µM and 1.72 µM | 1.29 µM and 1.86 µM | 2.95 µM and 1.43 µM | 3.26 µM and 2.39 µM | 1.7 µM and 1.8 µM | 6.87 µM and 4.1 µM | 0.412 µM and 0.199 µM | 4.07 µM and 19.9 µM |  |  | 0.179 µM | 0.426 µM and 0.193 µM | 0.305 µM | 0.889 µM and 0.317 µM | 0.331 µM and 0.158 µM | 0.462 µM and 0.273 µM |
| O=[N+]([O-])c1ccc(C2=Nn3c(nnc3-c3ccc(Cl)cc3)SC2)o1 | 6.28 µM | 1.16 µM | 5.72 µM |  | 26.3 µM | 12.4 µM | 27.1 µM | 23.5 µM | 18.4 µM | 48.6 µM |  | 5.85 µM |  |  |  |  |  |  |  |  |
| COC(=O)C1=CO[C@@H](OC2OC(CO)C(O)C(O)C2O)[C@H]2[C@@H](C)[C@@H](O)[C@@H](O)[C@@H]12 (stereo not given in full) | > 100 µM | > 100 µM | > 100 µM |  | > 100 µM | > 100 µM | > 100 µM | > 100 µM | > 100 µM | > 100 µM |  | > 100 µM |  |  |  |  |  |  |  |  |
| COc1cc2c(cc1Cc1cccc(Cl)c1F)c(=O)c(C(=O)O)cn2[C@@H](CO)C(C)C | 6.95 µM | 13.8 µM | 11.6 µM | 3.03 µM | 11.8 µM | 18.9 µM | 13.8 µM | 5.53 µM | 12.7 µM | 12.2 µM | 3.57 µM | 15 µM | 2.81 µM | 3.54 µM | 3.13 µM | 5.16 µM | 3.98 µM | 2.14 µM | 3.28 µM | 3.11 µM |
| S=C(NCCNC(=S)[S][Sn]([c]1ccccc1)([c]1ccccc1)[c]1ccccc1)[S][Sn]([c]1ccccc1)([c]1ccccc1)[c]1ccccc1 | 0.312 µM | 16.2 µM | 0.0764 µM | 0.0445 µM | 0.202 µM | 0.201 µM | 0.215 µM | 0.227 µM | 0.146 µM | 0.0938 µM | 0.014 µM | 0.0379 µM | 0.093 µM | 0.017 µM | 0.0219 µM | 0.0687 µM | 0.0823 µM | 0.099 µM | 0.0386 µM | 0.0231 µM |
| Cn1cc(C2=C(c3c4n(c5ccccc35)CCC(CN)C4)C(=O)NC2=O)c2ccccc21 (stereo not given) | 8.77 µM | 7.81 µM | 7.14 µM | 3.77 µM | 8.92 µM | 6.07 µM | 7.92 µM | 6.09 µM | 8.75 µM | 7.83 µM | 2.96 µM | 6.69 µM | 4.13 µM | 2.17 µM | 3.49 µM | 2.75 µM | 4.15 µM | 2.31 µM | 3.91 µM | 3.05 µM |
| CCN1C(=O)N(CC)C2C1NN=c1s/c(=C\c3ccco3)c(=O)n12 (stereo not given) | 6 µM | > 100 µM | > 100 µM | 1.43 µM | > 100 µM | > 100 µM | > 100 µM | > 44.6 µM | > 89.7 µM | > 100 µM | 0.439 µM | > 100 µM | 0.284 µM | 0.196 µM | 1.98 µM | 2.15 µM | 0.84 µM | 0.47 µM | 0.468 µM | 0.801 µM |
| C[C@@H]1CCC([C@@H](C)[C@H]2CC[C@H]3[C@@H]4CC[C@H]5C[C@@H](O)CC[C@]5(C)[C@H]4CC[C@]23C)=NC1 | > 21.2 µM | > 100 µM | 55.4 µM |  | > 100 µM | > 100 µM | 34.8 µM | > 43.6 µM | 66.6 µM | > 100 µM |  | > 100 µM |  |  |  |  |  |  |  |  |
| CC1(C)CC[C@]2(C(=O)O)CC[C@]3(C)C(=CC[C@@H]4[C@@]5(C)C[C@H](O)[C@H](O)[C@@](C)(C(=O)O)[C@@H]5CC[C@]43C)[C@@H]2C1 | > 31.6 µM | > 100 µM | > 100 µM |  | > 100 µM | > 100 µM | > 100 µM | > 100 µM | > 100 µM | > 100 µM |  | > 100 µM |  |  |  |  |  |  |  |  |
